Our source for the IC50 values is BindingDB's records for doi:10.1016/s0960-894x(99)00659-9 (Kyoto Pharmaceutical University, 2000).

A short description of the test: Inhibitory activity against porcine pancreatic elastase (PPE).
The IC50 is the concentration that inhibits the measured activity by half. A higher IC50 goes with weaker potency in that assay. For `Cc1ccc(CCC(=O)N[C@@H](Cc2ccccc2)C(=O)CCl)cc1` [N-((S)-1-Benzyl-3-chloro-2-oxo-propyl)-3-p-tolyl-propionamide], the IC50 came to 90 µM.
Turning to `Cc1cccc(CCC(=O)N[C@@H](Cc2ccccc2)C(=O)CCl)c1` [N-((S)-1-Benzyl-3-chloro-2-oxo-propyl)-3-m-tolyl-propionamide], the IC50 stood at 130 µM.
In turn, `CC(C)c1ccc(CCC(=O)N[C@@H](Cc2ccccc2)C(=O)CCl)cc1` [N-((S)-1-Benzyl-3-chloro-2-oxo-propyl)-3-(4-isopropyl-phenyl)-propionamide] had an IC50 of 15 µM.
On to `O=C(/C=C/c1ccccc1)N[C@@H](Cc1ccccc1)C(=O)CCl` [N-((S)-1-Benzyl-3-chloro-2-oxo-propyl)-3-phenyl-acrylamide], for which it took 26 µM to reach half-maximal inhibition (IC50).
`O=C(CCc1cccc(O)c1)N[C@@H](Cc1ccccc1)C(=O)CCl` [N-((S)-1-Benzyl-3-chloro-2-oxo-propyl)-3-(3-hydroxy-phenyl)-propionamide] gave an IC50 of over 1000 µM.
Take `O=C(CCc1ccc(O)cc1)N[C@@H](Cc1ccccc1)C(=O)CCl` [N-((S)-1-Benzyl-3-chloro-2-oxo-propyl)-3-(4-hydroxy-phenyl)-propionamide]: the IC50 is over 1000 µM.
Regarding `O=C(CCc1ccc(F)cc1)N[C@@H](Cc1ccccc1)C(=O)CCl` [N-((S)-1-Benzyl-3-chloro-2-oxo-propyl)-3-(4-fluoro-phenyl)-propionamide], the IC50 came to 240 µM.
In the case of `O=C(CCc1cccc(Cl)c1Cl)N[C@@H](Cc1ccccc1)C(=O)CCl` [N-((S)-1-Benzyl-3-chloro-2-oxo-propyl)-3-(2,3-dichloro-phenyl)-propionamide] it was 32 µM; in that of `O=C(CCc1ccccc1)N[C@@H](Cc1ccccc1)C(=O)CCl` [N-((S)-1-Benzyl-3-chloro-2-oxo-propyl)-3-phenyl-propionamide], 150 µM.
As for `COc1cccc(CCC(=O)N[C@@H](Cc2ccccc2)C(=O)CCl)c1` [N-((S)-1-Benzyl-3-chloro-2-oxo-propyl)-3-(3-methoxy-phenyl)-propionamide], the IC50 came to 600 µM.
Consider `COc1ccccc1CCC(=O)N[C@@H](Cc1ccccc1)C(=O)CCl` [N-((S)-1-Benzyl-3-chloro-2-oxo-propyl)-3-(2-methoxy-phenyl)-propionamide], for which the IC50 worked out at 85 µM.
`O=C(CCc1ccc(C(F)(F)F)cc1)N[C@@H](Cc1ccccc1)C(=O)CCl` [N-((S)-1-Benzyl-3-chloro-2-oxo-propyl)-3-(4-trifluoromethyl-phenyl)-propionamide]: the IC50 worked out at 13 µM.
The result for `O=C(CCc1cccc(F)c1)N[C@@H](Cc1ccccc1)C(=O)CCl` [N-((S)-1-Benzyl-3-chloro-2-oxo-propyl)-3-(3-fluoro-phenyl)-propionamide] reads 280 µM.
The result for `O=C(CCc1cccc(C(F)(F)F)c1)N[C@@H](Cc1ccccc1)C(=O)CCl` [N-((S)-1-Benzyl-3-chloro-2-oxo-propyl)-3-(3-trifluoromethyl-phenyl)-propionamide] reads 37 µM.
